# Laboratory results reported in patent publication US20260265329A1, “POLYPEPTIDE AND DERIVATIVE THEREOF, COMPOSITION, AND USE THEREOF” (HANGZHOU SCIWIND BIOSCIENCES CO., LTD., priority 2023, published 2026).
# Starred links: 1 amine or outer side, 2 acyl side, 3 side chain; linkers in the order of their positions; H or OH if unused. Non-standard residues stand in square brackets, D forms with d. Residues, ends and D or L forms follow the SMILES beside them. *: point of attachment. C20 diacid = O=C(O)CCCCCCCCCCCCCCCCCCC(=O)*; γGlu = O=C(O)[C@H](CCC(=O)[*:2])N[*:1]; βAsp = O=C(O)[C@H](CC(=O)[*:2])N[*:1]; Hyp = O=C(O)[C@@H]1C[C@@H](O)CN1; Trx = NC[C@H]1CC[C@H](C(=O)O)CC1; AEEA = NCCOCCOCC(=O)O; Inp = O=C(O)C1CCNCC1
# Target: T1, human amylin receptors (Homo sapiens, UniProt O60896+P30988)
# T1 construct: host or cells: CHO-K1/Ga15/AMY3 cells, further stably transfected with a CRE-luciferase plasmid
# T1 sequence (P30988 25-474): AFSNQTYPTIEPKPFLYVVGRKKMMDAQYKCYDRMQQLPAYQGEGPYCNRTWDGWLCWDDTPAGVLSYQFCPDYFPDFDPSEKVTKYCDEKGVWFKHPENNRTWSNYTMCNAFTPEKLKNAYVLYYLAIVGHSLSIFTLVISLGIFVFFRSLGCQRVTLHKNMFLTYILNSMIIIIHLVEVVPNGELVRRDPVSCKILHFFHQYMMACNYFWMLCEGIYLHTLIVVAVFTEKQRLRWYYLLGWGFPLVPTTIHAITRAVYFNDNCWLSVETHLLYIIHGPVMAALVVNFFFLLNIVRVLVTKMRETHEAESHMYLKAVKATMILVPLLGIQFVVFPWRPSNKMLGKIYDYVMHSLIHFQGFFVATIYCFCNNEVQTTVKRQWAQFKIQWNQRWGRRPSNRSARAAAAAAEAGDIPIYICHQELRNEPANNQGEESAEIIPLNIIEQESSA
# T1 sequence (O60896 24-148 partner): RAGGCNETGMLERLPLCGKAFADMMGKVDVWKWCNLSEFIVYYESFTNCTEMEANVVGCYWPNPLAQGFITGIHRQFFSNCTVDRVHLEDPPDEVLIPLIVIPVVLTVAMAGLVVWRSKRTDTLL
# Test: Luciferase assay in stably transfected amylin receptor/CRE-luc CHO cell line
# Assay type: cell-based
# Conditions: for Relative activity: EC50 ratio of Cagrilintide to the compound, Cagrilintide 100%; for EC50: amylin receptor/CRE-luc CHO cells, 24 hours incubation, luminescence
Structure (SMILES),Relative activity [%],EC50 [nM]
CC[C@H](C)[C@H](NC(=O)[C@H](CC(=O)O)NC(=O)[C@H](CCCNC(=N)N)NC(=O)[C@H](CC(=O)O)NC(=O)[C@H](CCCNC(=N)N)NC(=O)[C@H](CC(=O)O)NC(=O)[C@@H](NC(=O)[C@H](Cc1ccccc1)NC(=O)[C@H](Cc1c[nH]cn1)NC(=O)[C@H](CCCNC(=N)N)NC(=O)[C@H](CC(C)C)NC(=O)[C@H](Cc1ccccc1)NC(=O)[C@H](CC(=O)O)NC(=O)[C@H](C)NC(=O)[C@H](CC(C)C)NC(=O)[C@H](CCCNC(=N)N)NC(=O)[C@H](CCC(N)=O)NC(=O)[C@@H](NC(=O)[C@H](C)NC(=O)[C@H](C)NC(=O)[C@@H](NC(=O)[C@H](CO)NC(=O)[C@H](CC(C)C)NC(=O)[C@H](CCC(N)=O)NC(=O)[C@H](CO)NC(=O)[C@H](C)NC(=O)COCCOCCNC(=O)COCCOCCNC(=O)COCCOCCNC(=O)COCCOCCNC(=O)COCCOCCNC(=O)COCCOCCNC(=O)CC[C@H](NC(=O)CCCCCCCCCCCCCCCCCCC(=O)O)C(=O)O)[C@@H](C)O)[C@@H](C)O)[C@@H](C)O)C(=O)N[C@@H](CC(C)C)C(=O)N1CCC[C@H]1C(=O)N1CCC[C@H]1C(=O)N[C@H](C(=O)N[C@@H](CC(N)=O)C(=O)N[C@H](C(=O)NCC(=O)N[C@@H](CO)C(=O)N[C@@H](CC(N)=O)C(=O)N[C@H](C(=O)N1CCC[C@H]1C(N)=O)[C@@H](C)O)C(C)C)[C@@H](C)O [M25] ({C20 diacid-γGlu-AEEA-AEEA-AEEA-AEEA-AEEA-AEEA}-ASQLSTAATQRLADFLRHFTDRDRDILPPTNVGSNTP-NH2),25,
CC[C@H](C)[C@H](NC(=O)[C@@H]1CCCN1C(=O)[C@H](CCCCN)NC(=O)[C@H](CC(C)C)NC(=O)[C@H](CC(N)=O)NC(=O)[C@H](CC(N)=O)NC(=O)[C@H](CO)NC(=O)[C@H](CO)NC(=O)[C@H](Cc1c[nH]cn1)NC(=O)[C@H](CCCNC(=N)N)NC(=O)[C@H](CC(C)C)NC(=O)[C@H](Cc1ccccc1)NC(=O)[C@H](CC(=O)O)NC(=O)[C@H](C)NC(=O)[C@H](CC(C)C)NC(=O)[C@H](CCCNC(=N)N)NC(=O)[C@H](CCC(N)=O)NC(=O)[C@@H](NC(=O)[C@H](C)NC(=O)[C@H](C)NC(=O)[C@@H](NC(=O)[C@H](CO)NC(=O)[C@H](CC(C)C)NC(=O)[C@H](CCC(N)=O)NC(=O)[C@H](CO)NC(=O)[C@H](C)NC(=O)[C@H]1CC[C@H](CNC(=O)CCCCCCCCCCCCCCCCCCC(=O)O)CC1)[C@@H](C)O)[C@@H](C)O)C(=O)N[C@@H](CC(C)C)C(=O)N1CCC[C@H]1C(=O)N1CCC[C@H]1C(=O)N[C@H](C(=O)N[C@@H](CC(N)=O)C(=O)N[C@H](C(=O)NCC(=O)N[C@@H](CO)C(=O)N[C@@H](CC(N)=O)C(=O)N[C@H](C(=O)N1C[C@H](O)C[C@H]1C(N)=O)[C@@H](C)O)C(C)C)[C@@H](C)O [M29] ({C20 diacid-Trx}-ASQLSTAATQRLADFLRHSSNNLKPILPPTNVGSNT[Hyp]-NH2),412,
CC[C@H](C)[C@H](NC(=O)[C@@H]1CCCN1C(=O)[C@H](CCCCN)NC(=O)[C@H](CC(C)C)NC(=O)[C@H](CC(N)=O)NC(=O)[C@H](CC(N)=O)NC(=O)[C@H](CO)NC(=O)[C@H](CO)NC(=O)[C@H](Cc1c[nH]cn1)NC(=O)[C@H](CCCNC(=N)N)NC(=O)[C@H](CC(C)C)NC(=O)[C@H](Cc1ccccc1)NC(=O)[C@H](CC(=O)O)NC(=O)[C@H](C)NC(=O)[C@H](CC(C)C)NC(=O)[C@H](CCCNC(=N)N)NC(=O)[C@H](CCC(N)=O)NC(=O)[C@@H](NC(=O)[C@H](C)NC(=O)[C@H](C)NC(=O)[C@@H](NC(=O)[C@H](CO)NC(=O)[C@H](CC(C)C)NC(=O)[C@H](CCC(N)=O)NC(=O)[C@H](CO)NC(=O)[C@H](C)NC(=O)C1CCN(C(=O)CCCCCCCCCCCCCCCCCCC(=O)O)CC1)[C@@H](C)O)[C@@H](C)O)C(=O)N[C@@H](CC(C)C)C(=O)N1CCC[C@H]1C(=O)N1CCC[C@H]1C(=O)N[C@H](C(=O)N[C@@H](CC(N)=O)C(=O)N[C@H](C(=O)NCC(=O)N[C@@H](CO)C(=O)N[C@@H](CC(N)=O)C(=O)N[C@H](C(=O)N1C[C@H](O)C[C@H]1C(N)=O)[C@@H](C)O)C(C)C)[C@@H](C)O [M30] ({C20 diacid-Inp}-ASQLSTAATQRLADFLRHSSNNLKPILPPTNVGSNT[Hyp]-NH2),,0.039
CC[C@H](C)[C@H](NC(=O)[C@@H]1CCCN1C(=O)[C@H](CCCCN)NC(=O)[C@H](CC(C)C)NC(=O)[C@H](CC(N)=O)NC(=O)[C@H](CC(N)=O)NC(=O)[C@H](CO)NC(=O)[C@H](CO)NC(=O)[C@H](Cc1c[nH]cn1)NC(=O)[C@H](CCCNC(=N)N)NC(=O)[C@H](CC(C)C)NC(=O)[C@H](Cc1ccccc1)NC(=O)[C@H](CC(=O)O)NC(=O)[C@H](C)NC(=O)[C@H](CC(C)C)NC(=O)[C@H](CCCNC(=N)N)NC(=O)[C@H](CCC(N)=O)NC(=O)[C@@H](NC(=O)[C@H](C)NC(=O)[C@H](C)NC(=O)[C@@H](NC(=O)[C@H](CO)NC(=O)[C@H](CC(C)C)NC(=O)[C@H](CCC(N)=O)NC(=O)[C@H](CO)NC(=O)[C@H](C)NC(=O)COCCOCCNC(=O)COCCOCCNC(=O)CC[C@H](NC(=O)CCCCCCCCCCCCCCCCCCC(=O)O)C(=O)O)[C@@H](C)O)[C@@H](C)O)C(=O)N[C@@H](CC(C)C)C(=O)N1CCC[C@H]1C(=O)N1CCC[C@H]1C(=O)N[C@H](C(=O)N[C@@H](CC(N)=O)C(=O)N[C@H](C(=O)NCC(=O)N[C@@H](CO)C(=O)N[C@@H](CC(N)=O)C(=O)N[C@H](C(=O)N1C[C@H](O)C[C@H]1C(N)=O)[C@@H](C)O)C(C)C)[C@@H](C)O [M31] ({C20 diacid-γGlu-AEEA-AEEA}-ASQLSTAATQRLADFLRHSSNNLKPILPPTNVGSNT[Hyp]-NH2),30,0.168

# Next, values leading:
Relative activity [%],EC50 [nM],Structure (SMILES)
103,0.049,CC[C@H](C)[C@H](NC(=O)[C@@H]1CCCN1C(=O)[C@H](CCCCN)NC(=O)[C@H](CC(C)C)NC(=O)[C@H](CC(N)=O)NC(=O)[C@H](CC(N)=O)NC(=O)[C@H](CO)NC(=O)[C@H](CO)NC(=O)[C@H](Cc1c[nH]cn1)NC(=O)[C@H](CCCNC(=N)N)NC(=O)[C@H](CC(C)C)NC(=O)[C@H](Cc1ccccc1)NC(=O)[C@H](CC(=O)O)NC(=O)[C@H](C)NC(=O)[C@H](CC(C)C)NC(=O)[C@H](CCCNC(=N)N)NC(=O)[C@H](CCC(N)=O)NC(=O)[C@@H](NC(=O)[C@H](C)NC(=O)[C@H](C)NC(=O)[C@@H](NC(=O)[C@H](CO)NC(=O)[C@H](CC(C)C)NC(=O)[C@H](CCC(N)=O)NC(=O)[C@H](CO)NC(=O)[C@H](C)NC(=O)[C@H](CCC(=O)O)NC(=O)CCCCCCCCCCCCCCCCCCC(=O)O)[C@@H](C)O)[C@@H](C)O)C(=O)N[C@@H](CC(C)C)C(=O)N1CCC[C@H]1C(=O)N1CCC[C@H]1C(=O)N[C@H](C(=O)N[C@@H](CC(N)=O)C(=O)N[C@H](C(=O)NCC(=O)N[C@@H](CO)C(=O)N[C@@H](CC(N)=O)C(=O)N[C@H](C(=O)N1C[C@H](O)C[C@H]1C(N)=O)[C@@H](C)O)C(C)C)[C@@H](C)O [M26] ({C20 diacid}-EASQLSTAATQRLADFLRHSSNNLKPILPPTNVGSNT[Hyp]-NH2)
78,0.064,CC[C@H](C)[C@H](NC(=O)[C@@H]1CCCN1C(=O)[C@H](CCCCN)NC(=O)[C@H](CC(C)C)NC(=O)[C@H](CC(N)=O)NC(=O)[C@H](CC(N)=O)NC(=O)[C@H](CO)NC(=O)[C@H](CO)NC(=O)[C@H](Cc1c[nH]cn1)NC(=O)[C@H](CCCNC(=N)N)NC(=O)[C@H](CC(C)C)NC(=O)[C@H](Cc1ccccc1)NC(=O)[C@H](CC(=O)O)NC(=O)[C@H](C)NC(=O)[C@H](CC(C)C)NC(=O)[C@H](CCCNC(=N)N)NC(=O)[C@H](CCC(N)=O)NC(=O)[C@@H](NC(=O)[C@H](C)NC(=O)[C@H](C)NC(=O)[C@@H](NC(=O)[C@H](CO)NC(=O)[C@H](CC(C)C)NC(=O)[C@H](CCC(N)=O)NC(=O)[C@H](CO)NC(=O)[C@H](C)NC(=O)C[C@H](NC(=O)CCCCCCCCCCCCCCCCCCC(=O)O)C(=O)O)[C@@H](C)O)[C@@H](C)O)C(=O)N[C@@H](CC(C)C)C(=O)N1CCC[C@H]1C(=O)N1CCC[C@H]1C(=O)N[C@H](C(=O)N[C@@H](CC(N)=O)C(=O)N[C@H](C(=O)NCC(=O)N[C@@H](CO)C(=O)N[C@@H](CC(N)=O)C(=O)N[C@H](C(=O)N1C[C@H](O)C[C@H]1C(N)=O)[C@@H](C)O)C(C)C)[C@@H](C)O [M27] ({C20 diacid-βAsp}-ASQLSTAATQRLADFLRHSSNNLKPILPPTNVGSNT[Hyp]-NH2)
128,0.039,CC[C@H](C)[C@H](NC(=O)[C@@H]1CCCN1C(=O)[C@H](CCCCN)NC(=O)[C@H](CC(C)C)NC(=O)[C@H](CC(N)=O)NC(=O)[C@H](CC(N)=O)NC(=O)[C@H](CO)NC(=O)[C@H](CO)NC(=O)[C@H](Cc1c[nH]cn1)NC(=O)[C@H](CCCNC(=N)N)NC(=O)[C@H](CC(C)C)NC(=O)[C@H](Cc1ccccc1)NC(=O)[C@H](CC(=O)O)NC(=O)[C@H](C)NC(=O)[C@H](CC(C)C)NC(=O)[C@H](CCCNC(=N)N)NC(=O)[C@H](CCC(N)=O)NC(=O)[C@@H](NC(=O)[C@H](C)NC(=O)[C@H](C)NC(=O)[C@@H](NC(=O)[C@H](CO)NC(=O)[C@H](CC(C)C)NC(=O)[C@H](CCC(N)=O)NC(=O)[C@H](CO)NC(=O)[C@H](C)NC(=O)[C@H](CC(=O)O)NC(=O)CCCCCCCCCCCCCCCCCCC(=O)O)[C@@H](C)O)[C@@H](C)O)C(=O)N[C@@H](CC(C)C)C(=O)N1CCC[C@H]1C(=O)N1CCC[C@H]1C(=O)N[C@H](C(=O)N[C@@H](CC(N)=O)C(=O)N[C@H](C(=O)NCC(=O)N[C@@H](CO)C(=O)N[C@@H](CC(N)=O)C(=O)N[C@H](C(=O)N1C[C@H](O)C[C@H]1C(N)=O)[C@@H](C)O)C(C)C)[C@@H](C)O [M28] ({C20 diacid}-DASQLSTAATQRLADFLRHSSNNLKPILPPTNVGSNT[Hyp]-NH2)
